# Experimental data as given in patent publication US5428059A, “Benzopyran derivatives and an anti-allergic agent possessing the same as the active ingredient” (Dainippon Ink & Chemicals, Inc., priority 1991, dated 1995).
# Test system: Hartley-type male guinea pigs
# Test: Guinea Pig Homogeneous Skin Passive Anaphylaxis Assay (PCA reaction)
# Format: in vivo, guinea pig (Hartley-type)
# Conditions: 10 mg/kg oral, 48 h after sensitization
# Experimental: In order to confirm the anti-allergic action of the compounds according to the present invention, as an anti-allergic action confirmation assay, the widely used Guinea Pig Homogeneous Skin Passive Anaphylaxis Assay (PCA Reaction Assay; Passive Cutaneous Anaphylaxis Reaction Assay) was carried out. The assay method used will be explained in the following.
# Assay method: Hartley-type male guinea pigs (body weight: 250~300 g) were sensitized by the following procedure; a mixture of 2 μg of egg albumin (OVA) and 5 μg of aluminium hydroxide gel was administered intraperitoneally 3 times every 2 weeks, and the anti-OVA blood serum was manufactured.
# The anti-blood serum obtained was then diluted 120 times using physiological saline solution, and then to groups each containing 6 shaved guinea pigs, was injected at a quantity of 0.05 ml respectively, into two positions in the back portion, inside the skin of each animal.
# After the 48th hour of sensitization, 10 mg/kg of the test substance to be tested was orally administered, following which a mixture of 2 mg OVA and 5 mg of Evans Blue was administered by intraveneous injection into the hind leg, triggering the anaphylaxis reaction. As the positive control, Tranilast, a well known anti-allergic agent, was used, and in the same manner as the substances to be tested, 100 mg/kg of it was orally administered after the 48th hour of sensitization.
# 30 minutes after triggering the reaction, the animals were bled to death under ether anesthesia, and their back portion skins were peeled off. The long and short diameters of pigment leakage spots on the interior surface of the skins were measured, and the product of these (mm^2) were entered into formula 1 as "pigment leakage amount", from which the allergic reaction inhibitory index wins calculated. [formula]
# I: Allergic reaction inhibitory index (%)
# A: Pigment leakage amount of solvent control group
# B: Pigment leakage amount of test substance group
# C: Pigment leakage amount of […]
row,Structure (SMILES),Allergic reaction inhibitory index (%)
1,"COc1cccc2c(OC(C)=O)c(OC(C)=O)c(=O)oc12 [Compound 113, 3,4-(diacetoxy)-8-(methoxy)-2H-1-benzopyran-2-one]",30

# Same assay, conditions: Cavia porcellus, 10 mg/kg oral, 48 h after sensitization, read-out: Allergic reaction inhibitory index (%)
row,Structure (SMILES),inhibition in vivo at 10 mg/kg [%]
1,"CCCCCCCCCCOc1ccc2c(OC(C)C)c(O)c(=O)oc2c1 [Compound 63, 3-hydroxy-4-(isopropoxy)-7-(decyloxy)-2H-1-benzopyran-2-one]",37
2,"CC(C)=CCC/C(C)=C/COc1c(OC(C)C)c(=O)oc2cccc(O)c12 [Compound 192, 3-(isopropoxy)-4-(geranyloxy)-5-hydroxy-2H-1-benzopyran-2-one]",37
3,"CCCCCCCCCCOc1c(O)c(=O)oc2ccc(OC)cc12 [Compound 276, 3-(hydroxy)-4-(decyloxy)-6-(methoxy)-2H-1-benzopyran-2-one]",34
4,"CC(=O)Oc1c(OC(=O)c2ccccc2)c2ccc(O)cc2oc1=O [Compound 10, 3-(acetoxy)-4-(benzoyloxy)-7-hydroxy-2H-1-benzopyran-2-one]",30
5,"CC(C)=CCC/C(C)=C/COc1ccc2c(O)c(OC/C=C(\C)CCC=C(C)C)c(=O)oc2c1 [Compound 83, 3,7-(digeranyloxy)-4-hydroxy-2H-1-benzopyran-2-one]",34
6,"O=C(Oc1c(O)c2ccc(O)cc2oc1=O)c1ccccc1 [Compound 4, 3-(benzoyloxy)-4,7-dihydroxy-2H-1-benzopyran-2-one]",43
7,"COc1c(OC/C=C(\C)CCC=C(C)C)c2cccc(OC(C)C)c2oc1=O [Compound 141, 3-(methoxy)-4-(geranyloxy)-8-(isopropoxy)-2H-1-benzopyran-2-one]",32
8,"CC(C)=CCC/C(C)=C/COc1c(OC(=O)c2ccccc2)c(=O)oc2cc(O)ccc12 [Compound 23, 3-(benzoyloxy)-4-(geranyloxy)-7-hydroxy-2H-1-benzopyran-2-one]",30
9,"COc1c(O)c2ccc(OC/C=C(\C)CCC=C(C)C)cc2oc1=O [Compound 78, 3-(methoxy)-4-hydroxy-7-(geranyloxy)-2H-1-benzopyran-2-one]",37
10,"CC(=O)Oc1c(O)c(=O)oc2c(OC(C)C)cccc12 [Compound 131, 3-hydroxy-4-(acetoxy)-8-(isopropoxy)-2H-1-benzopyran-2-one]",31
11,"CCCCCCCCCCOc1c(O)c2ccc(O)cc2oc1=O [Compound 16, 3-(decyloxy)-4,7-(dihydroxy)-2H-1-benzopyran-2-one]",40
12,"CC(C)=CCC/C(C)=C/COc1c(OC(=O)c2ccccc2)c(=O)oc2cccc(O)c12 [Compound 190, 3-(benzoyloxy)-4-(geranyloxy)-5-hydroxy-2H-1-benzopyran-2-one]",31
13,"CCCCCCCCCCOc1c(O)c(=O)oc2cccc(OC)c12 [Compound 199, 3-hydroxy-4-(decyloxy)-5-(methoxy)-2H-1-benzopyran-2-one]",32
14,"CCCCOc1cccc2oc(=O)c(O)c(O)c12 [Compound 227, 3,4-(dihydroxy)-5-(butoxy)-2H-1-benzopyran-2-one]",50
15,"CC(C)=CCC/C(C)=C/COc1cccc2oc(=O)c(OC(=O)c3ccccc3)c(O)c12 [Compound 244, 3-(benzoyloxy)-4-hydroxy-5-(geranyloxy)-2H-1-benzopyran-2-one]",33
16,"CCCCCCCCCCOc1c(OC(=O)c2ccccc2)c2c(OC(C)C)cccc2oc1=O [Compound 218, 3-(decyloxy)-4-(benzoyloxy)-5-(isopropoxy)-2H-1-benzopyran-2-one]",31
17,"CC(C)=CCC/C(C)=C/COc1c(OC(C)C)c(=O)oc2cc(O)ccc12 [Compound 25, 3-(isopropoxy)-4-(geranyloxy)-7-hydroxy-2H-1-benzopyran-2-one]",32

row,Structure (SMILES),inhibition in vivo at 10 mg/kg [%]
1,"CCCCCCCCCCOc1ccc2c(O)c(OC/C=C(\C)CCC=C(C)C)c(=O)oc2c1 [Compound 67, 3-(geranyloxy)-4-hydroxy-7-(decyloxy)-2H-1-benzopyran-2-one]",39
2,"COc1ccc2c(O)c(OC(C)C)c(=O)oc2c1 [Compound 34, 3-(isopropoxy)-4-hydroxy-7-(methoxy)-2H-1-benzopyran-2-one]",39
3,"CC(C)=CCC/C(C)=C/COc1c(OC(C)C)c(=O)oc2c(OC/C=C(\C)CCC=C(C)C)cccc12 [Compound 172, 3-(isopropoxy)-4,8-(digeranyloxy)-2H-1-benzopyran-2-one]",30
4,"COc1c(O)c2cccc(OC/C=C(\C)CCC=C(C)C)c2oc1=O [Compound 162, 3-(methoxy)-4-hydroxy-8-(geranyloxy)-2H-1-benzopyran-2-one]",31
5,"COc1c(O)c2ccc(O)cc2oc1=O [Compound 14, 3-(methoxy)-4,7-(dihydroxy)-2H-1-benzopyran-2-one]",47
6,"CC(C)=CCC/C(C)=C/COc1c(O)c(=O)oc2cc(O)ccc12 [Compound 20, 3,7-(dihydroxy)-4-(geranyloxy)-2H-1-benzopyran-2-one]",30
7,"CCCCCCCCCCOc1c(OC)c(=O)oc2cccc(OC(C)C)c12 [Compound 216, 3-(methoxy)-4-(decyloxy)-5-(isopropoxy)-2H-1-benzopyran-2-one]",34
8,"CC(C)Oc1cccc2oc(=O)c(OC(=O)c3ccccc3)c(O)c12 [Compound 210, 3-(benzoyloxy)-4-hydroxy-5-(isopropoxy)-2H-1-benzopyran-2-one]",40
9,"CCCCCCCCCCOc1c(O)c2cccc(O)c2oc1=O [Compound 97, 3-(decyloxy)-4,8-(dihydroxy)-2H-1-benzopyran-2-one]",34
10,"CC(C)=CCC/C(C)=C/COc1c(O)c2c(OC(C)C)cccc2oc1=O [Compound 219, 3-(geranyloxy)-4-hydroxy-5-(isopropoxy)-2H-1-benzopyran-2-one]",36
11,"CCCCCCCCCCOc1c(OC(C)C)c2c(OC/C=C(\C)CCC=C(C)C)cccc2oc1=O [Compound 250, 3-(decyloxy)-4-(isopropoxy)-5-(geranyloxy)-2H-1-benzopyran-2-one]",31
12,"CCCCCCCCCCOc1cccc2c(OC/C=C(\C)CCC=C(C)C)c(OC(C)C)c(=O)oc12 [Compound 156, 3-(isopropoxy)-4-(geranyloxy)-8-(decyloxy)-2H-1-benzopyran-2-one]",32
13,"CC(C)=CCC/C(C)=C/COc1ccc2c(O)c(OC(=O)c3ccccc3)c(=O)oc2c1 [Compound 74, 3-(benzoyloxy)-4-hydroxy-7-(geranyloxy)-2H-1-benzopyran-2-one]",34
14,"CCCCCCCCCCOc1cccc2oc(=O)c(OC/C=C(\C)CCC=C(C)C)c(O)c12 [Compound 237, 3-(geranyloxy)-4-hydroxy-5-(decyloxy)-2H-1-benzopyran-2-one]",34
15,"CC(C)=CCC/C(C)=C/COc1c(O)c(=O)oc2cccc(O)c12 [Compound 188, 3,5-(dihydroxy)-4-(geranyloxy)-2H-1-benzopyran-2-one]",32
16,"CCCCCCCCCCOc1cccc2oc(=O)c(OC/C=C(\C)CCC=C(C)C)c(OC/C=C(\C)CCC=C(C)C)c12 [Compound 243, 3,4-(digeranyloxy)-5-(decyloxy)-2H-1-benzopyran-2-one]",31
